{"source": "patent US20240315297A1", "about": "“STEVIOL GLYSOCIDE SOLUBILITY ENHANCERS” (CARGILL, INCORPORATED, priority 2017, published 2024)", "key": {"[1]": {"experiment": "Observation of samples for solubility/precipitation in water (Example 9)", "type": "physicochemical", "conditions": "for time over which a soluble solution was promoted: 0.3% steviol glycoside mixture, 5:1 molar ratio of acid to steviol glycoside"}, "[2]": {"conditions": "sensory evaluation; cited from earlier work"}, "[3]": {"type": "physicochemical", "text": "The composition can optionally be expressed in terms of the concentration of one or more steviol glycoside(s). […] Clear solutions without precipitates are considered soluble. Unless indicated otherwise herein, the term “solubility” refers to “equilibrium solubility.”"}}}
{"smiles": "O=C(O)c1cc(O)c(O)c(O)c1", "note": "[Gallic acid]", "values": [{"measurement": "colour imparted to the sample solutions", "setting": "[1]; more apparent at higher concentrations, observed after about 3 days", "result": "brownish tinge"}]}
{"smiles": "O=C(O)C(O)c1ccccc1", "note": "(centres unmarked) [Mandelic acid]", "values": [{"measurement": "time over which a soluble solution was promoted", "setting": "[1]", "result": 3, "unit": "days"}]}
{"smiles": "O=C(O)c1cc(C(=O)O)c(C(=O)O)cc1C(=O)O", "note": "[Pyromellitic acid]", "values": [{"measurement": "time over which a soluble solution was promoted", "setting": "[1]", "result": 3, "unit": "days"}]}
{"smiles": "C=C1C[C@@]23CC[C@H]4[C@@](C)(CCC[C@@]4(C)C(=O)O[C@@H]4O[C@H](CO)[C@@H](O)[C@H](O)[C@H]4O[C@@H]4O[C@H](CO)[C@@H](O)[C@H](O)[C@H]4O)[C@@H]2CC[C@]1(O[C@@H]1O[C@H](CO)[C@@H](O)[C@H](O[C@@H]2O[C@H](CO)[C@@H](O)[C@H](O)[C@H]2O)[C@H]1O[C@@H]1O[C@H](CO)[C@@H](O)[C@H](O)[C@H]1O)C3", "note": "[Rebaudioside D, rebaudioside D]", "values": [{"measurement": "times sweeter than sucrose", "setting": "[2]", "result": "200-220 times"}, {"measurement": "equilibrium solubility", "setting": "[3]", "result": 0.08, "unit": "%"}, {"measurement": "instantaneous solubility", "setting": "[3]", "result": "less than 0.08%"}]}
{"smiles": "C=C1C[C@@]23CC[C@H]4[C@@](C)(CCC[C@@]4(C)C(=O)O[C@@H]4O[C@H](CO)[C@@H](O)[C@H](O[C@@H]5O[C@H](CO)[C@@H](O)[C@H](O)[C@H]5O)[C@H]4O[C@@H]4O[C@H](CO)[C@@H](O)[C@H](O)[C@H]4O)[C@@H]2CC[C@]1(O[C@@H]1O[C@H](CO)[C@@H](O)[C@H](O[C@@H]2O[C@H](CO)[C@@H](O)[C@H](O)[C@H]2O)[C@H]1O[C@@H]1O[C@H](CO)[C@@H](O)[C@H](O)[C@H]1O)C3", "note": "[Rebaudioside M, rebaudioside M]", "values": [{"measurement": "equilibrium solubility", "setting": "[3]", "result": "about 0.2%"}, {"measurement": "instantaneous solubility", "setting": "[3]", "result": "about 0.13%"}]}
